Data from ChEMBL document CHEMBL4507272 (2021).

Tests used:
[1] = test system: Tyrosine-protein kinase ABL1 (Homo sapiens), P00519 [F317I]; settings: Compound concentration 1000.0 nM
[2] = molecular target: Activin receptor type-1B (Homo sapiens) (UniProt P36896); settings: Compound concentration 1000.0 nM
[3] = molecular target: 5'-AMP-activated protein kinase catalytic subunit alpha-2 (Homo sapiens) (UniProt P54646); settings: Compound concentration 1000.0 nM
[4] = molecular target: Mitogen-activated protein kinase kinase kinase 5 (Homo sapiens) (UniProt Q99683); settings: Compound concentration 1000.0 nM
[5] = molecular target: Cyclin-dependent kinase 4 (Homo sapiens) (UniProt P11802); settings: Compound concentration 1000.0 nM
[6] = molecular target: Cyclin-dependent kinase-like 5 (Homo sapiens) (UniProt O76039); settings: Compound concentration 1000.0 nM
[7] = molecular target: Casein kinase I isoform delta (Homo sapiens) (UniProt P48730); settings: Compound concentration 1000.0 nM
Chain of Casein kinase I isoform delta (Homo sapiens) (P48730 whole entry, looked up, canonical isoform): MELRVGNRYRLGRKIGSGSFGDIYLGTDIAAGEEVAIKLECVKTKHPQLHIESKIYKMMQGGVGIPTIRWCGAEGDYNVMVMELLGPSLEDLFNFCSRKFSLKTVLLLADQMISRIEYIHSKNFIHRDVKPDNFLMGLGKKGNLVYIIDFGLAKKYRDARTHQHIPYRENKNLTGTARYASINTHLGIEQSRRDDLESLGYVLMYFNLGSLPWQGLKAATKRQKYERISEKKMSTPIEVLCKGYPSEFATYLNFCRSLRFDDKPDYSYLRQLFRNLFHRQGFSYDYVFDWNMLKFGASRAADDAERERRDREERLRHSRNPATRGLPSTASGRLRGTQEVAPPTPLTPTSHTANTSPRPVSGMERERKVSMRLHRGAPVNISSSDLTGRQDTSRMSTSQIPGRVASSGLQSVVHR

[8] = molecular target: Death-associated protein kinase 2 (Homo sapiens) (UniProt Q9UIK4); settings: Compound concentration 1000.0 nM
[9] = molecular target: Serine/threonine-protein kinase DCLK2 (Homo sapiens) (UniProt Q8N568); settings: Compound concentration 1000.0 nM
[10] = test system: Epidermal growth factor receptor (Homo sapiens), P00533 [UNDEFINED MUTATION]; settings: Compound concentration 1000.0 nM
[11] = test system: Epidermal growth factor receptor (Homo sapiens), P00533 [L861Q]; settings: Compound concentration 1000.0 nM
[12] = molecular target: Tyrosine-protein kinase FRK (Homo sapiens) (UniProt P42685); settings: Compound concentration 1000.0 nM
[13] = molecular target: Tyrosine-protein kinase HCK (Homo sapiens) (UniProt P08631); settings: Compound concentration 1000.0 nM
[14] = molecular target: Inhibitor of nuclear factor kappa-B kinase subunit epsilon (Homo sapiens) (UniProt Q14164); settings: Compound concentration 1000.0 nM
[15] = molecular target: Serine/threonine-protein kinase LATS2 (Homo sapiens) (UniProt Q9NRM7); settings: Compound concentration 1000.0 nM
[16] = molecular target: Leucine-rich repeat serine/threonine-protein kinase 2 (Homo sapiens) (UniProt Q5S007); settings: Compound concentration 1000.0 nM
[17] = molecular target: Mitogen-activated protein kinase kinase kinase 15 (Homo sapiens) (UniProt Q6ZN16); settings: Compound concentration 1000.0 nM
Chain of Mitogen-activated protein kinase kinase kinase 15 (Homo sapiens) (Q6ZN16 whole entry): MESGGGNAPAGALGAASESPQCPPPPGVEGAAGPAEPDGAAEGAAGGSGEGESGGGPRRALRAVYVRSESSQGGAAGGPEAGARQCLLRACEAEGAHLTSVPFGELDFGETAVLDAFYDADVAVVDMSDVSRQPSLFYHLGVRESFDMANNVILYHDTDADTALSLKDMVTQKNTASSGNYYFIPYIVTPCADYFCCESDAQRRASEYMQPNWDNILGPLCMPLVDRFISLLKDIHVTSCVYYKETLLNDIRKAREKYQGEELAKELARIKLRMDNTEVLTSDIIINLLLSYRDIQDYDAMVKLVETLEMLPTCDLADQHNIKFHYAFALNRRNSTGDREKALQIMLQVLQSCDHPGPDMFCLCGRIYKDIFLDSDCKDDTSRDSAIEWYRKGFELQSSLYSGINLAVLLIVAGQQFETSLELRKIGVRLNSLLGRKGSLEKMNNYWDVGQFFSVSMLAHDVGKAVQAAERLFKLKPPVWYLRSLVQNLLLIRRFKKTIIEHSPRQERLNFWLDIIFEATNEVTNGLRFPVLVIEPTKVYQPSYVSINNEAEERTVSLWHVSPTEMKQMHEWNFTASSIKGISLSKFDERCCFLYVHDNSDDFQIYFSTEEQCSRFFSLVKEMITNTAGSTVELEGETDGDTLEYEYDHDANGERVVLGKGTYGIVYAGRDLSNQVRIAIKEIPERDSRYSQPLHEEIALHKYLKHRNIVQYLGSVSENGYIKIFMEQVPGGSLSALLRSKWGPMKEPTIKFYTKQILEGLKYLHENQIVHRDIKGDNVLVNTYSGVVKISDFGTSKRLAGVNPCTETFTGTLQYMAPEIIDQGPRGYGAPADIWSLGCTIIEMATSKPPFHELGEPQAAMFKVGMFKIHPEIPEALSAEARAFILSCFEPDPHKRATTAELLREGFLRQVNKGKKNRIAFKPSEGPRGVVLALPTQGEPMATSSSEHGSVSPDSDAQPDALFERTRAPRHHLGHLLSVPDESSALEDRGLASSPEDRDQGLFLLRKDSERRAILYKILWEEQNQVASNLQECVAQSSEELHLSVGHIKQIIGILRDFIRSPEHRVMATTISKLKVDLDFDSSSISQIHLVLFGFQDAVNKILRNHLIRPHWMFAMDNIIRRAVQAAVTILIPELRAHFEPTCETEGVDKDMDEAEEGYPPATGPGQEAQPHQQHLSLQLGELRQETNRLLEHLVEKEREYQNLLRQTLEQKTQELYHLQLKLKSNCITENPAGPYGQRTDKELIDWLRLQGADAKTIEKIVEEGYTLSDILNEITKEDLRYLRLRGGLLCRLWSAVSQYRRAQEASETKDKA

[18] = molecular target: Maternal embryonic leucine zipper kinase (Homo sapiens) (UniProt Q14680); settings: Compound concentration 1000.0 nM
[19] = molecular target: Misshapen-like kinase 1 (Homo sapiens) (UniProt Q8N4C8); settings: Compound concentration 1000.0 nM
[20] = molecular target: Macrophage-stimulating protein receptor (Homo sapiens) (UniProt Q04912); settings: Compound concentration 1000.0 nM
[21] = molecular target: Myosin light chain kinase, smooth muscle (Homo sapiens) (UniProt Q15746); settings: Compound concentration 1000.0 nM
[22] = molecular target: Myosin light chain kinase 2, skeletal/cardiac muscle (Homo sapiens) (UniProt Q9H1R3); settings: Compound concentration 1000.0 nM
[23] = molecular target: Serine/threonine-protein kinase 38 (Homo sapiens) (UniProt Q15208); settings: Compound concentration 1000.0 nM
Chain of Serine/threonine-protein kinase 38 (Homo sapiens) (Q15208 2-465 limits assumed): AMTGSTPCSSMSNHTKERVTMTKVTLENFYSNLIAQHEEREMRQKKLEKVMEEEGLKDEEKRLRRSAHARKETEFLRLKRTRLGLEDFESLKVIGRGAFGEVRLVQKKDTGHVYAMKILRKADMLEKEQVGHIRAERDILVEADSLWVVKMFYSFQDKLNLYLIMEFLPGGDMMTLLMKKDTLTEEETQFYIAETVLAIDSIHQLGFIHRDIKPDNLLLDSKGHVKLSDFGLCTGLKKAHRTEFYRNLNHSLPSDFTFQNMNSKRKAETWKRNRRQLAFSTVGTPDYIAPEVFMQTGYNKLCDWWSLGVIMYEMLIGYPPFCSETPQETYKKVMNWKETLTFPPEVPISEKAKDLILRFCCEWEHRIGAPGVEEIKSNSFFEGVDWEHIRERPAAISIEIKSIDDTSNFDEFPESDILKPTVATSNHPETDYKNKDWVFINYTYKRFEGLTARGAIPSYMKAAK

[24] = molecular target: Serine/threonine-protein kinase Nek6 (Homo sapiens) (UniProt Q9HC98); settings: Compound concentration 1000.0 nM
[25] = molecular target: Serine/threonine-protein kinase Nek9 (Homo sapiens) (UniProt Q8TD19); settings: Compound concentration 1000.0 nM
[26] = molecular target: Mitogen-activated protein kinase kinase kinase 14 (Homo sapiens) (UniProt Q99558); settings: Compound concentration 1000.0 nM
Chain of Mitogen-activated protein kinase kinase kinase 14 (Homo sapiens) (Q99558 whole entry, looked up): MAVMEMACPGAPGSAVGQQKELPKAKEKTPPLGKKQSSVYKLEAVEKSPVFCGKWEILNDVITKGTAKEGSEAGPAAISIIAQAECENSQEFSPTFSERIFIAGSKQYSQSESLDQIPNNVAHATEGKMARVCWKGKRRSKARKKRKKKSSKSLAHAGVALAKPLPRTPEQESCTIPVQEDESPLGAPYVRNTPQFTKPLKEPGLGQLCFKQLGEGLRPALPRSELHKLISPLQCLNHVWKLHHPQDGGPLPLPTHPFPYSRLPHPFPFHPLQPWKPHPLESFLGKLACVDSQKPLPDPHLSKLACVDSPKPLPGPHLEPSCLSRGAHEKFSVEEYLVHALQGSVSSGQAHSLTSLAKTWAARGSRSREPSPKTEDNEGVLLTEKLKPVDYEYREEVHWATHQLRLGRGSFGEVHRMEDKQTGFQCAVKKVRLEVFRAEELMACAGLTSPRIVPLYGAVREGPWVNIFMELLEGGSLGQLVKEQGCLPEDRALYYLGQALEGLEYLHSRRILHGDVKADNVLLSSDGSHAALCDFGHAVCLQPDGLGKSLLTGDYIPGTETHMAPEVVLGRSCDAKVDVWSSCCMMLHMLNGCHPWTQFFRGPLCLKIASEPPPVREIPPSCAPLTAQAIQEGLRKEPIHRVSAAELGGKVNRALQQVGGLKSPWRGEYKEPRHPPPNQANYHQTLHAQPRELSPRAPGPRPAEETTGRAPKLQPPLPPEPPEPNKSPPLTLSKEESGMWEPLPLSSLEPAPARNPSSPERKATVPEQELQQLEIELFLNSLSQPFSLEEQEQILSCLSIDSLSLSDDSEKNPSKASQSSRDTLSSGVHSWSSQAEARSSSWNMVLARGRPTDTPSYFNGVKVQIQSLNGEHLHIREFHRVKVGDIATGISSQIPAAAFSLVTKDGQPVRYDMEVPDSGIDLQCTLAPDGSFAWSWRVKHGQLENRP

[27] = molecular target: Serine/threonine-protein kinase NIM1 (Homo sapiens) (UniProt Q8IY84); settings: Compound concentration 1000.0 nM
[28] = molecular target: Serine/threonine-protein kinase NLK (Homo sapiens) (UniProt Q9UBE8); settings: Compound concentration 1000.0 nM
[29] = molecular target: Mitogen-activated protein kinase 13 (Homo sapiens) (UniProt O15264); settings: Compound concentration 1000.0 nM
[30] = molecular target: Serine/threonine-protein kinase PAK 4 (Homo sapiens) (UniProt O96013); settings: Compound concentration 1000.0 nM
[31] = molecular target: Cyclin-dependent kinase 18 (Homo sapiens) (UniProt Q07002); settings: Compound concentration 1000.0 nM
[32] = molecular target: Cyclin-dependent kinase 2 homolog (Plasmodium falciparum (isolate 3D7)) (UniProt P61075); settings: Compound concentration 1000.0 nM
Chain of Cyclin-dependent kinase 2 homolog (Plasmodium falciparum (isolate 3D7)) (P61075 whole entry): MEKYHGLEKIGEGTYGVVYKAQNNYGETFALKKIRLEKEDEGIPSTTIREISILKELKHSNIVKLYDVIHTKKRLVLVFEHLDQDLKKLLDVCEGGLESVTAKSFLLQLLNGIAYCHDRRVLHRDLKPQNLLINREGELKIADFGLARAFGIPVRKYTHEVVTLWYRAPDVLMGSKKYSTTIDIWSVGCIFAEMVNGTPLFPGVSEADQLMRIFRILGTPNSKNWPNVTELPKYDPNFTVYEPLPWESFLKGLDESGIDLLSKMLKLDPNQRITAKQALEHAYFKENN

[33] = molecular target: Cyclin-dependent kinase 14 (Homo sapiens) (UniProt O94921); settings: Compound concentration 1000.0 nM
[34] = test system: Phosphatidylinositol 4,5-bisphosphate 3-kinase catalytic subunit alpha isoform (Homo sapiens), P42336 [H1047Y]; settings: Compound concentration 1000.0 nM
[35] = molecular target: Interferon-induced, double-stranded RNA-activated protein kinase (Homo sapiens) (UniProt P19525); settings: Compound concentration 1000.0 nM
Chain of Interferon-induced, double-stranded RNA-activated protein kinase (Homo sapiens) (P19525 whole entry): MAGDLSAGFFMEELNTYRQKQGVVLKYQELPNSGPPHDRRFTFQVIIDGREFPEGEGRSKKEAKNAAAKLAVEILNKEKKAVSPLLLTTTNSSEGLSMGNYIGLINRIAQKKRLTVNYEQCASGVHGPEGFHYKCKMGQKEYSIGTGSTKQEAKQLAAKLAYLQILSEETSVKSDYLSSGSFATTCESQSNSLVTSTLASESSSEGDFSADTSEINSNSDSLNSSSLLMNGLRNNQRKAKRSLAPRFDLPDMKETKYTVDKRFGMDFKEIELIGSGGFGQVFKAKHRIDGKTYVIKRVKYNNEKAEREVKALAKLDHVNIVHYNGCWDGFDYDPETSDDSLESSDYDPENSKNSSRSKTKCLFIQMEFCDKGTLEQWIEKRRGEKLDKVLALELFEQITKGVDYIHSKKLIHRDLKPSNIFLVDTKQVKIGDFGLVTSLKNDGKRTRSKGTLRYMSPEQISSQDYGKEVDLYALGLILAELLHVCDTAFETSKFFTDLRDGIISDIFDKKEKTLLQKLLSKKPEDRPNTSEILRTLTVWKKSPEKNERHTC

[36] = molecular target: RAF proto-oncogene serine/threonine-protein kinase (Homo sapiens) (UniProt P04049); settings: Compound concentration 1000.0 nM
Chain of RAF proto-oncogene serine/threonine-protein kinase (Homo sapiens) (P04049 whole entry): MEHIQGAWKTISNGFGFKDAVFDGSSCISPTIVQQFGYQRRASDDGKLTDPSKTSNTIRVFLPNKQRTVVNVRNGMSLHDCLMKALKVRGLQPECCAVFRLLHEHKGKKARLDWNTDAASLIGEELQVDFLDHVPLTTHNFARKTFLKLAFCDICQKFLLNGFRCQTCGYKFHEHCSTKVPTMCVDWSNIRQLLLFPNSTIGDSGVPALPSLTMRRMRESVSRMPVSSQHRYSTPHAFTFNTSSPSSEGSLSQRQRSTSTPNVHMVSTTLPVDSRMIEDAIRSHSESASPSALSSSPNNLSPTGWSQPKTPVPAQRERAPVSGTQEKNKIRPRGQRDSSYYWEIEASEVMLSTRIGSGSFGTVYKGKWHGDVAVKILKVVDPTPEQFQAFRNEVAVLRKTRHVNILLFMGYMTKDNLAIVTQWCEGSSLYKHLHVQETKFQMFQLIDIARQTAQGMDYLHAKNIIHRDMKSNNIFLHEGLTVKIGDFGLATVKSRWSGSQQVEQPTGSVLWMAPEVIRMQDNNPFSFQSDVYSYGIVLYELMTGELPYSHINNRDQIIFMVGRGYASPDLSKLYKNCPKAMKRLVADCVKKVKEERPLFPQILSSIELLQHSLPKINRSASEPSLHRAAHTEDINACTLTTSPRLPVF

[37] = test system: Proto-oncogene tyrosine-protein kinase receptor Ret (Homo sapiens), P07949 [V804L]; settings: Compound concentration 1000.0 nM
[38] = molecular target: Ribosomal protein S6 kinase alpha-6 (Homo sapiens) (UniProt Q9UK32); settings: Compound concentration 1000.0 nM
[39] = molecular target: Serine/threonine-protein kinase SIK2 (Homo sapiens) (UniProt Q9H0K1); settings: Compound concentration 1000.0 nM
[40] = molecular target: Mitogen-activated protein kinase kinase kinase 7 (Homo sapiens) (UniProt O43318); settings: Compound concentration 1000.0 nM
[41] = molecular target: Serine/threonine-protein kinase ULK1 (Homo sapiens) (UniProt O75385); settings: Compound concentration 1000.0 nM
[42] = molecular target: Serine/threonine-protein kinase ULK3 (Homo sapiens) (UniProt Q6PHR2); settings: Compound concentration 1000.0 nM
[43] = molecular target: 5-hydroxytryptamine receptor 1E (Homo sapiens) (UniProt P28566); settings: Compound concentration 10.0 uM
Chain of 5-hydroxytryptamine receptor 1E (Homo sapiens) (P28566 whole entry): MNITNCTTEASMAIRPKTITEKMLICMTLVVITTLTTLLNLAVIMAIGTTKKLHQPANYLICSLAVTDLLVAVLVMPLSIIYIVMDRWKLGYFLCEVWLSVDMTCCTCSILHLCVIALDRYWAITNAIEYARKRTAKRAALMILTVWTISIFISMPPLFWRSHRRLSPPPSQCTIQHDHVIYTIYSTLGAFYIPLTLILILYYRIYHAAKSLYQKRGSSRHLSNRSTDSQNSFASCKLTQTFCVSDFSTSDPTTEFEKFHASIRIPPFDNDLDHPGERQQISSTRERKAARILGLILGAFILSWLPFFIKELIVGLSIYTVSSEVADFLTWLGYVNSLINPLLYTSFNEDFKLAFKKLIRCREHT

Histamine H3 receptor = Histamine H3 receptor (Homo sapiens, UniProt Q9Y5N1); settings: Compound concentration 10.0 uM
[44] = molecular target: Muscarinic acetylcholine receptor M3 (Homo sapiens) (UniProt P20309); settings: Compound concentration 10.0 uM

CC(=O)C1=C(C)N(c2cccc(C(F)(F)F)c2)C(=O)N[C@@H]1c1ccc(C#N)nc1 [BAY-678]
inactive: residual activity [1] 100% | residual activity [2] 100% | residual activity [3] 80.4% | residual activity [4] 94.8% | residual activity [5] 79.4% | residual activity [6] 100% | residual activity [7] 100% | residual activity [8] 79.2% | residual activity [9] 88% | residual activity [10] 78.6% | residual activity [11] 100% | residual activity [12] 100% | residual activity [13] 87.7% | residual activity [14] 98.2% | residual activity [15] 100% | residual activity [16] 80.7% | residual activity [17] 100% | residual activity [18] 88.2% | residual activity [19] 100% | residual activity [20] 81.1% | residual activity [21] 83.8% | residual activity [22] 100% | residual activity [23] 94.1% | residual activity [24] 100% | residual activity [25] 100% | residual activity [26] 100% | residual activity [27] 83.5% | residual activity [28] 93% | residual activity [29] 74.6% | residual activity [30] 97.9% | residual activity [31] 85.1% | residual activity [32] 100% | residual activity [33] 91.7% | residual activity [34] 87.6% | residual activity [35] 83.4% | residual activity [36] 100% | residual activity [37] 97.4% | residual activity [38] 87.7% | residual activity [39] 87.8% | residual activity [40] 100% | residual activity [41] 100% | residual activity [42] 100% | inhibition [43] 7.74% | inhibition (Histamine H3 receptor) 50% | inhibition [44] 10.4%
